Data reported in paper PMC3665789 (PLoS ONE, 2013).

Experiments:
HIV-1 IIIB = assay: Time-of-drug-addition study, HIV; format: cell-based; settings: MT-4 cells, 48 µM LabyA1
Method: The time-of-drug-addition (TOA) experiments were performed as described. In brief, 1×10^6 MT-4 cells/ml were infected with HIV-1 X4 IIIB at a multiplicity of infection (MOI) of 0.5. The compounds were added at different time points in a range from 0 to 26 h post-infection. After 31 h, HIV-1 replication was detected by p24 HIV-1 Ag ELISA as described above. The reference compounds were added at 100 times their EC50-values, as obtained in the MT-4 cell antiviral assay.

HSV-2 strain G = assay: Time-of-drug-addition study, HSV-2; format: cell-based; settings: HEL cells; LabyA1 19 µM, ACV 35 µM; after 3 days
Method: TOA experiments for HSV-2 were performed identically as the viral replication assays, but each compound separately (LabyA1 or ACV) was added together with the virus (0 h) or after 2 h post-infection. The reference compound was added at least 100 times its EC50-value, as obtained in the HEL cell line (Table 3).

HIV-1 R5 BaL in PBMCs = assay: Susceptibility of pre-treated PBMCs for HIV-1 infection; settings: washed, HIV-1 BaL, day 7
Method: The next day, cells were collected, extensively washed in culture medium, resuspended (5×10^5 cells/450 µl) and seeded in a 48-well plate. Immediately afterwards, 50 µl of HIV-1 R5 strain BaL (500 pg/well) was added and cells were cultures for 7 days. Supernatant was collected 7 days post virus infection and viral replication was determined by p24 HIV-1 Ag ELISA.

[1] = system: HIV-1 DJ259 (clinical isolate; R5); settings: PBMCs; DJ259, group M subtype C; p24 Ag ELISA
HIV-1 NL4.3 = assay: Pre-incubation of MT-4 cells with compound, wash, then HIV-1 NL4.3 infection; format: cell-based; settings: MT-4 cells pre-incubated 2 h at 37°C, washed, infected with HIV-1 NL4.3; 5 days; control 100% CPE
Lactobacillus strains = assay: Vaginal Lactobacillus growth assay; format: cell-based; settings: dose up to 120 µM; 24 h, OD600
Method: Lactobacillus strains grown overnight to stationary phase (OD600 nm ∼1.8–2.0) were used as inocula for the assay. The assay was performed in 96-well microtiter plates. Sterile wells were filled with 200 µl MRS (de Man – Rogosa – Sharpe) medium (BD Biosciences). About 0.5×10^7 colony forming units or CFUs (1/100 of an overnight culture) were added and then 5-fold dilution series of different concentrations of the used compounds were administered. The plates were incubated without shaking for 24 h at 37°C. The OD600 nm was measured after 24 h and as a negative control, each strain was grown in medium without compound (Petrova et al., in preparation).

CXCR4 = CXCR4 (Homo sapiens, UniProt P61073); assay: Anti-CXCR4 mAb binding on SupT1 cells (flow cytometry); parameters: endogenous in cells; host or cells: SupT1 T cells (ATCC)
Method: To determine the interaction of LabyA1 with CD4, SupT1 cells (100 µl; 3×10^6 cells/ml) were incubated for 20 min at 4°C with 9.6 µM, 1.9 µM or 0 µM LabyA1. After extensive washing with PBS/FCS2% (PBS supplemented with 2% FCS), anti-CD4-PE conjugated mAbs RPA-T4 (eBioscience, Vienna, Austria), MT441 (Ancell, Enzo Life sciences) and OKT-4 (eBioscience) were added for 30 min at 4°C. For aspecific background staining, cells were incubated with SimulTest™ Control (IgGγ1-FITC/IgGγ2a-PE) (BD Biosciences). After washing, and fixation with 1% formaldehyde solution, samples were analyzed using the FACSCalibur and CellQuest software (BD Biosciences). The same protocol was applied for anti-CXCR4 evaluation using the fluorochrome conjugated mAbs 12G5-PE and 2B11-FITC (both BD Biosciences).

HIV-1 NL4.3^AZTres. (X4) = settings: read-out: EC50 (µM ± SEM); MT-4 cells; NL4.3 resistant to azidothymidine (AZT); MTS/PES
[2] = system: HSV-1 TK^- RV-179 (clinical isolate); settings: HEL cells, CPE
[3] = system: HSV-1 TK^- RV-117 (clinical isolate); settings: HEL cells, CPE
HIV-2 ROD (R5/X4) = settings: read-out: EC50 (µM ± SEM), PBMCs, p27 HIV-2 Ag ELISA
[4] = system: HSV-2 wild-type RV-24 (clinical isolate); settings: HEL cells; HSV-2 RV-24; CPE
[5] = system: HIV-1 BCF-06 (clinical isolate; X4); settings: PBMCs; BCF-06, group O; p27 Ag ELISA
[6] = system: HSV-1 wild-type KOS (reference strain); settings: HEL cells; HSV-1 KOS; reduction of virus-induced CPE by 50%
[7] = system: HIV-1 US2 (clinical isolate; R5/X4); settings: PBMCs; US2, group M subtype B; p24 Ag ELISA
HIV-1 NL4.3^RALres. (X4) = settings: read-out: EC50 (µM ± SEM); MT-4 cells; NL4.3 resistant to raltegravir (RAL); MTS/PES
HIV-1 HE (R5/X4) = settings: read-out: EC50 (µM ± SEM), PBMCs, p24 Ag ELISA
HIV-1 IIIB (X4) = settings: read-out: EC50 (µM ± SEM), MT-4 cells, MTS/PES method
HIV = settings: read-out: anti-HIV activity EC50 range; range over all HIV strains in cell cultures
HSV-1 wild-type = settings: read-out: Median EC50; median over HSV-1 wild-type strains; HEL cells
[8] = system: HSV-2 wild-type RV-124 (clinical isolate); settings: HEL cells; HSV-2 RV-124; CPE

Chain of CXCR4 (P61073 whole entry): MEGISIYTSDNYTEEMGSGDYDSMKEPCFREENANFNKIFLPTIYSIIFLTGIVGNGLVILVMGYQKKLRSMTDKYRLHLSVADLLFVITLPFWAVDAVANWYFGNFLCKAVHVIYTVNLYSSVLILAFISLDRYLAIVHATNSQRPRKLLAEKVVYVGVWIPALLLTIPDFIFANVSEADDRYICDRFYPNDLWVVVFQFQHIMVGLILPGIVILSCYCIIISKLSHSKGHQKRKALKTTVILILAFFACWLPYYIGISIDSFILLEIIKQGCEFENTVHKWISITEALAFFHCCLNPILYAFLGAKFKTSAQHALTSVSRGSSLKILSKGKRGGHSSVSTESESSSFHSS

For `C/C=C1\NC(=O)[C@H](Cc2ccccc2)NC(=O)[C@@H]2CCCN2C(=O)[C@H](C(C)C)NC(=O)[C@H](Cc2c[nH]c3ccccc23)NC(=O)[C@]23CSC[C@H](NC1=O)C(=O)N[C@H](C(=O)O)CSSC[C@H](NC(=O)[C@@H]1CSC[C@]4(C[C@H](N)C(=O)N[C@@H](CC(N)=O)C(=O)N[C@@H](C)C(=O)N4)C(=O)N[C@@H](C(C)C)C(=O)N[C@@H](Cc4c[nH]c5ccccc45)C(=O)N[C@@H](CCC(=O)O)C(=O)N1)C(=O)N[C@@H](C2)C(=O)N[C@@H]([C@@H](C)O)C(=O)NCC(=O)N3` [LabyA1, labyrinthopeptin A1], the time-of-drug-addition profile (HIV-1 IIIB) was “prevented HIV infection at an early time point somewhat comparable with AMD3100”, the “HSV-2 induced CPE, compound given simultaneously with virus (0 h)” value (HSV-2 strain G) was “no CPE or viral replication were observed” and the “antiviral activity, compound added after 2 h adsorption period” value (HSV-2 strain G) was “significant decrease”. The “p24 HIV-1 Ag production after pre-treatment” value (HIV-1 R5 BaL in PBMCs; PBMCs pre-treated 24 h with 1.9 µM) was 12.26 ± 4.61 ng/mL, the “p24 HIV-1 Ag production after pre-treatment” value (HIV-1 R5 BaL in PBMCs; PBMCs pre-treated 24 h with 9.6 µM, no compound 12.69±4.83) was 15.37 ± 3.75 ng/mL and the EC50 [1] was 940 ± 430 nM. For the same compound, the “% CPE after pre-incubation of cells and removal of compound” value (HIV-1 NL4.3) was 96.8±3.2 % CPE, the “growth inhibitory effects on Lactobacillus strains” value (Lactobacillus strains) was “no growth inhibitory effects were observed” and the “inhibition of binding of anti-CXCR4 mAb 12G5” value (CXCR4; SupT1 cells, 9.6 µM and 1.9 µM) was “unable to inhibit”. The “binding of anti-CXCR4 mAbs clone 12G5 and 2B11 to CXCR4” value (CXCR4; data not shown) was “did not affect the binding”, the EC50 (HIV-1 NL4.3^AZTres. (X4)) was 1.1 ± 0.1 µM and the EC50 [2] was 1900 ± 300 nM. It also gave an EC50 [3] of 1900 ± 600 nM, an EC50 (HIV-2 ROD (R5/X4)) of 1 ± 0.3 µM and an EC50 [4] of 410 ± 280 nM. The EC50 [5] was 830 ± 330 nM, the EC50 [6] was 560 ± 50 nM and the EC50 [7] was 700 ± 190 nM. For the same compound, the EC50 (HIV-1 NL4.3^RALres. (X4)) was 0.88 ± 0.08 µM, the EC50 (HIV-1 HE (R5/X4)) was 1.8 ± 0.3 µM and the EC50 (HIV-1 IIIB (X4)) was 2 ± 0.6 µM. It also gave an EC50 (HIV) of 700 to 3300 nM, an EC50 (HSV-1 wild-type) of 1600 nM and an EC50 [8] of 1400 ± 400 nM.
